Test results: paper PMC4457528, “Identification of Novel Small Molecule Inhibitors of Oncogenic RET Kinase” (PLoS ONE, 2015)
Like-named read-outs stand apart in the source and are kept apart here.

Experiments:
Assay in all cases: KinomeScan kinase panel, single concentration 10 µM
Type in all cases: binding
KinomeScan kinase panel [1] = biological target: T1, KinomeScan kinase panel (Homo sapiens, UniProt O14730); settings: read-out: score (%)
T1 construct: purchased DiscoveRx (KinomeScan)
T1 sequence (O14730 1-519): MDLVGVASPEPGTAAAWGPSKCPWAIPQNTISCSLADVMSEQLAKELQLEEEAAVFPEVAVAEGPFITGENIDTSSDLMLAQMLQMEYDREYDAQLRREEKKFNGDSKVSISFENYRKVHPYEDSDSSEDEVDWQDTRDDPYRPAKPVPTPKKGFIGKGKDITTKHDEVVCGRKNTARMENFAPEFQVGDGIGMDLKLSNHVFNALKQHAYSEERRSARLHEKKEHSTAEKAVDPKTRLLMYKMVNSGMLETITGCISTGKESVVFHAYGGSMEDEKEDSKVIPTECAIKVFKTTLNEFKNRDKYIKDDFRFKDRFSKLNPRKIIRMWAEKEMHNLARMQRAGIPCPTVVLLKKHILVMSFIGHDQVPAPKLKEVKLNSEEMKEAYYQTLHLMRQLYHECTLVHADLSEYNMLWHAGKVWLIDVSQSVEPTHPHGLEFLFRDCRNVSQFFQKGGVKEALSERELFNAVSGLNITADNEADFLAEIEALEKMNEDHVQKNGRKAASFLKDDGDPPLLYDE

KinomeScan kinase panel [2] = biological target: T2, KinomeScan kinase panel (Homo sapiens, UniProt O75116); settings: read-out: score (%)
T2 construct: purchased DiscoveRx (KinomeScan)
T2 sequence (O75116 whole entry): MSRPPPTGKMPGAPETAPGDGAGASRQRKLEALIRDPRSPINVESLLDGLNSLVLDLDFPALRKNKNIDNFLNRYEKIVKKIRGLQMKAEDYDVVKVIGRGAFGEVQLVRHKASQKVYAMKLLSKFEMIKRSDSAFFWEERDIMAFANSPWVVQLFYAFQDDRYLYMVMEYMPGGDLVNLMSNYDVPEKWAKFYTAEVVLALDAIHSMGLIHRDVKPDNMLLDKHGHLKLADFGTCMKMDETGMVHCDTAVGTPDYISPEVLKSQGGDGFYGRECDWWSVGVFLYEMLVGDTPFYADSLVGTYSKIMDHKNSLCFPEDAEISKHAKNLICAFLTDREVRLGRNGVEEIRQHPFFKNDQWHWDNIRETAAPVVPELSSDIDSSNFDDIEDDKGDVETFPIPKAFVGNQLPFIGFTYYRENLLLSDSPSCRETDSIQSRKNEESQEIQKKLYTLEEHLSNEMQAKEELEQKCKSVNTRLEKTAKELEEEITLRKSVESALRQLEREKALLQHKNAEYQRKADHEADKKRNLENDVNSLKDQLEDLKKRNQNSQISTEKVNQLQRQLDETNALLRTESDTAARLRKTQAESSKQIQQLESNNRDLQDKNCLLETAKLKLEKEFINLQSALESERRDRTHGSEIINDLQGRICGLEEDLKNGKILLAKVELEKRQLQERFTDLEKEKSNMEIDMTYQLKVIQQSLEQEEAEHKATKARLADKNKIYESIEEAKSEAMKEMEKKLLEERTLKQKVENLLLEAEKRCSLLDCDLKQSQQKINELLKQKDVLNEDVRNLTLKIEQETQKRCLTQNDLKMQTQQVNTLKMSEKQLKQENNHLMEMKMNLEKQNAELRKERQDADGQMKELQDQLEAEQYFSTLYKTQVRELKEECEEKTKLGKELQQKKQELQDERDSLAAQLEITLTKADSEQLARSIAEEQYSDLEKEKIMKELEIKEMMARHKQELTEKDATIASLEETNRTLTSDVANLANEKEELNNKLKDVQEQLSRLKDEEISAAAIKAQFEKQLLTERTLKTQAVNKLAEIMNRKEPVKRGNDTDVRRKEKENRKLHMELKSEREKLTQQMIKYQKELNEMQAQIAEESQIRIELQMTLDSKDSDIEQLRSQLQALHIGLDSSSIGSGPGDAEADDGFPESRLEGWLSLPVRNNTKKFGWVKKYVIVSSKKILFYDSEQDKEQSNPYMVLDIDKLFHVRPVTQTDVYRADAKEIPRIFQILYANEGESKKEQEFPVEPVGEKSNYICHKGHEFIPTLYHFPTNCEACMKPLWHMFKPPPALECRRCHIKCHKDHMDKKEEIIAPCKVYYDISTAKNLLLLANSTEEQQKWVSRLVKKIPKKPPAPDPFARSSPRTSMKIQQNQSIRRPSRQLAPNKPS

KinomeScan kinase panel [3] = biological target: T3, KinomeScan kinase panel (Homo sapiens, UniProt O96013); settings: PAK4, 10 µM; read-out: score (%)
T3 construct: purchased DiscoveRx (KinomeScan)
T3 sequence (O96013 whole entry): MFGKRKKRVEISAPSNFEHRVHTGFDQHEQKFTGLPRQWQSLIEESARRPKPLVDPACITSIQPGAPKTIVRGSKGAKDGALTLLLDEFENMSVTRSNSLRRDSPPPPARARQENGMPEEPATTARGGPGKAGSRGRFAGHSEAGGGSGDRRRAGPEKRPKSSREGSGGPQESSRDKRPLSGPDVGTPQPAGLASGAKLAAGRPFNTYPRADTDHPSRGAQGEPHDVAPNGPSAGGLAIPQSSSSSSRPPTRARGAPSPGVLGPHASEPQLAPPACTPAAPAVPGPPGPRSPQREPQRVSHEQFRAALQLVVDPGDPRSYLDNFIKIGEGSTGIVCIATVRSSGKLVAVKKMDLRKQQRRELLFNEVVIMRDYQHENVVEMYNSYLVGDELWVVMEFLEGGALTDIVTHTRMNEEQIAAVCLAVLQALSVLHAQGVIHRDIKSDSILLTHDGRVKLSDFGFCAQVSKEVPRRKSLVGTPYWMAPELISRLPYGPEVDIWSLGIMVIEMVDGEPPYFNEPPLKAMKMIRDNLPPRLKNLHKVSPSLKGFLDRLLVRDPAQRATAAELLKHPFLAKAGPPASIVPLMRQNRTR

KinomeScan kinase panel [4] = biological target: T4, KinomeScan kinase panel (Homo sapiens, UniProt P00519, Q252H); settings: 10 µM, read-out: score (%)
T4 construct: purchased DiscoveRx (KinomeScan)

KinomeScan kinase panel [5] = biological target: T5, KinomeScan kinase panel (Homo sapiens, UniProt P07333); settings: CSF1R, 10 µM; read-out: score (%)
T5 construct: purchased DiscoveRx (KinomeScan)

KinomeScan kinase panel [6] = biological target: T6, KinomeScan kinase panel (Homo sapiens, UniProt P07948); settings: LYN, 10 µM; read-out: score (%)
T6 construct: purchased DiscoveRx (KinomeScan)

KinomeScan kinase panel [7] = biological target: T7, KinomeScan kinase panel (Homo sapiens, UniProt P42685); settings: FRK, 10 µM; read-out: score (%)
T7 construct: purchased DiscoveRx (KinomeScan)

KinomeScan kinase panel [8] = biological target: T8, KinomeScan kinase panel (Homo sapiens, UniProt P51813); settings: BMX, 10 µM; read-out: score (%)
T8 construct: purchased DiscoveRx (KinomeScan)
T8 sequence (P51813 1-675): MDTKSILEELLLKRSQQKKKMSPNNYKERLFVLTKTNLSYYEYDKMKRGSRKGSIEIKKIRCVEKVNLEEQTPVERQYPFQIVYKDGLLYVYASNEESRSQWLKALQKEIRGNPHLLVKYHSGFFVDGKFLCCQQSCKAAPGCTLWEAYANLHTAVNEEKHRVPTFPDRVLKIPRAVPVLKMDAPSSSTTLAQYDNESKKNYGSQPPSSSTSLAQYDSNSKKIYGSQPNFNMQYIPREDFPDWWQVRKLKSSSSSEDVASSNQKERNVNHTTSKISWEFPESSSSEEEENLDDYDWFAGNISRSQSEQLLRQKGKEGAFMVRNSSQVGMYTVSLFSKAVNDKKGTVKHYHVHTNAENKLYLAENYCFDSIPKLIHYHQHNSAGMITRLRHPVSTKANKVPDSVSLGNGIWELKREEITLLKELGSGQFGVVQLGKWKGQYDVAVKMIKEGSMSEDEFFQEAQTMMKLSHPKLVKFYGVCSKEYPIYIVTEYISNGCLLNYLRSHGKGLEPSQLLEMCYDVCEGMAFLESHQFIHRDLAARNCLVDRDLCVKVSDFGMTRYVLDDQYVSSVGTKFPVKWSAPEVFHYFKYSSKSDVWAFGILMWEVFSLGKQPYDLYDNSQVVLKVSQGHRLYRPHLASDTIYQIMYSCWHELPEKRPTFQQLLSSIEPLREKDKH

KinomeScan kinase panel [9] = biological target: T9, KinomeScan kinase panel (Homo sapiens, UniProt P53350); settings: PLK1, 10 µM; read-out: score (%)
T9 construct: purchased DiscoveRx (KinomeScan)
T9 sequence (P53350 whole entry): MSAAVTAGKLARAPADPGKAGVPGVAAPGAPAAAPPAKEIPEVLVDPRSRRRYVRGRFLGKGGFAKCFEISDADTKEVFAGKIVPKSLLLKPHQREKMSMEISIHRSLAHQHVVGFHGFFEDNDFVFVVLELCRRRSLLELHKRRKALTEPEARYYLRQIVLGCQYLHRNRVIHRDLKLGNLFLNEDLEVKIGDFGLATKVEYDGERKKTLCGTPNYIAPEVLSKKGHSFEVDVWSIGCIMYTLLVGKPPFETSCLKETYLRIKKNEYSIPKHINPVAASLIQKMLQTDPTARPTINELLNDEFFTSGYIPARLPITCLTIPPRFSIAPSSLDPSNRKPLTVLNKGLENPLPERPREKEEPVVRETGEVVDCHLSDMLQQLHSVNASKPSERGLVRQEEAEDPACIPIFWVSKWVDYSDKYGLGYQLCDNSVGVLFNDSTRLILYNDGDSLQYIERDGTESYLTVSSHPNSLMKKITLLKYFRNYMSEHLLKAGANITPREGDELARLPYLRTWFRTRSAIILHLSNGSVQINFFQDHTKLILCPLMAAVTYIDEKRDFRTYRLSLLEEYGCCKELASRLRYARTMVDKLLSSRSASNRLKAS

KinomeScan kinase panel [10] = biological target: T10, KinomeScan kinase panel (Homo sapiens, UniProt P53667); settings: LIMK1, 10 µM; read-out: score (%)
T10 construct: purchased DiscoveRx (KinomeScan)
T10 sequence (P53667 whole entry): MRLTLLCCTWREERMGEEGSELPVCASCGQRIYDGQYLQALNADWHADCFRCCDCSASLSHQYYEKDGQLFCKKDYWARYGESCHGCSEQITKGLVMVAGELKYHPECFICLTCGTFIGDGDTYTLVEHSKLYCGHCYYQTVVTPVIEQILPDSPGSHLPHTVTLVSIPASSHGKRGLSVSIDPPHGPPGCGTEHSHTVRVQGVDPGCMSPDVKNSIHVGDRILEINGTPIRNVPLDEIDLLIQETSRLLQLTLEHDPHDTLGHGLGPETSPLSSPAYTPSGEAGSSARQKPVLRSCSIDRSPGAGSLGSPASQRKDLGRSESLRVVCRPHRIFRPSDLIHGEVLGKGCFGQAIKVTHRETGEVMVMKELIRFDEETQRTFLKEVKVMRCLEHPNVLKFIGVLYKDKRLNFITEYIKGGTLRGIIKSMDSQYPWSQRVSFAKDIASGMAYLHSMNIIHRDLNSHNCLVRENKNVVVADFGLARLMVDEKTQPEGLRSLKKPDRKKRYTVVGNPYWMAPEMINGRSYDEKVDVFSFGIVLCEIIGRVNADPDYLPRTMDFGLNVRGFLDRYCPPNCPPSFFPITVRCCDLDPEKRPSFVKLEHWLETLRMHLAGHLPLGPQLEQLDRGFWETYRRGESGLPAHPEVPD

KinomeScan kinase panel [11] = biological target: T11, KinomeScan kinase panel (Homo sapiens, UniProt Q04912); settings: MST1R, 10 µM; read-out: score (%)
T11 construct: purchased DiscoveRx (KinomeScan)

KinomeScan kinase panel [12] = biological target: T12, KinomeScan kinase panel (Homo sapiens, UniProt Q05397); settings: read-out: score (%)
T12 construct: purchased DiscoveRx (KinomeScan)

KinomeScan kinase panel [13] = biological target: T13, KinomeScan kinase panel (Homo sapiens, UniProt Q13705); settings: ACVR2B, 10 µM
T13 construct: purchased DiscoveRx (KinomeScan)

KinomeScan kinase panel [14] = biological target: T14, KinomeScan kinase panel (Homo sapiens, UniProt Q14012); settings: CAMK1, 10 µM; read-out: score (%)
T14 construct: purchased DiscoveRx (KinomeScan)

KinomeScan kinase panel [15] = biological target: T15, KinomeScan kinase panel (Homo sapiens, UniProt Q99755); settings: PIP5K1A, 10 µM; read-out: score (%)
T15 construct: purchased DiscoveRx (KinomeScan)
T15 sequence (Q99755 whole entry): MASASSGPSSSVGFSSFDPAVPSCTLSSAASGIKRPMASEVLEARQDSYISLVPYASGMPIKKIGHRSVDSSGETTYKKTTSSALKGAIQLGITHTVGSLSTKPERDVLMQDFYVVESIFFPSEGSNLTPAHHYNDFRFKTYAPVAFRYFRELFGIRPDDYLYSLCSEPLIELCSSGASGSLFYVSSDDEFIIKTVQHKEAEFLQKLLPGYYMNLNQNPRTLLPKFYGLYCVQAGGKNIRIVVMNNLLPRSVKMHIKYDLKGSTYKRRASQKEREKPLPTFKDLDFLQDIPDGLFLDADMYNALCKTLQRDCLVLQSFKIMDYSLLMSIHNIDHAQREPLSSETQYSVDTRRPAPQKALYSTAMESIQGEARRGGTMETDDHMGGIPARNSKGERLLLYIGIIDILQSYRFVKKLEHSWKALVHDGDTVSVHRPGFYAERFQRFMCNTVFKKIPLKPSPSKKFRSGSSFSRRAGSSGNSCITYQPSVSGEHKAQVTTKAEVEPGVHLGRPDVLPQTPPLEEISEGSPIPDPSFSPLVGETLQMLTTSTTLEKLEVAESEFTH

KinomeScan kinase panel [16] = biological target: T16, KinomeScan kinase panel (Homo sapiens, UniProt Q9BVS4); settings: read-out: score (%)
T16 construct: purchased DiscoveRx (KinomeScan)

KinomeScan kinase panel [17] = biological target: T17, KinomeScan kinase panel (Homo sapiens, UniProt Q9BWU1); settings: CDK11, 10 µM
T17 construct: purchased DiscoveRx (KinomeScan)
T17 sequence (Q9BWU1 whole entry): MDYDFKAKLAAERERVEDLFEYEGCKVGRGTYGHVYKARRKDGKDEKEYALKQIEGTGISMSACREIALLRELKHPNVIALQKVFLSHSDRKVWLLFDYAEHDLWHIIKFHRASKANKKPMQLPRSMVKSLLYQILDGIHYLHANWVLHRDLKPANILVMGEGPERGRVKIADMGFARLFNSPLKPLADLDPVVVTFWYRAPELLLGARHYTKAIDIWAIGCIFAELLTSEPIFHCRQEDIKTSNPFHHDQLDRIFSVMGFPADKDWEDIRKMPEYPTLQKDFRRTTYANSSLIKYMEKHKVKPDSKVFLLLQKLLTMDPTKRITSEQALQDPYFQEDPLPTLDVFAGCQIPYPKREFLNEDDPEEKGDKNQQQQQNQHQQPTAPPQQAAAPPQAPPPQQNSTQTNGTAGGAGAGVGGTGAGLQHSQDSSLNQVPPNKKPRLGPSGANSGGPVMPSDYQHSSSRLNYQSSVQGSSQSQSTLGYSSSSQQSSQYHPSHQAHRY

KinomeScan kinase panel [18] = biological target: T18, KinomeScan kinase panel (Homo sapiens, UniProt Q9P286); settings: read-out: score (%)
T18 construct: purchased DiscoveRx (KinomeScan)

KinomeScan kinase panel [19] = biological target: T19, KinomeScan kinase panel (Homo sapiens, UniProt Q9UPE1); settings: read-out: score (%)
T19 construct: purchased DiscoveRx (KinomeScan)
T19 sequence (Q9UPE1 whole entry): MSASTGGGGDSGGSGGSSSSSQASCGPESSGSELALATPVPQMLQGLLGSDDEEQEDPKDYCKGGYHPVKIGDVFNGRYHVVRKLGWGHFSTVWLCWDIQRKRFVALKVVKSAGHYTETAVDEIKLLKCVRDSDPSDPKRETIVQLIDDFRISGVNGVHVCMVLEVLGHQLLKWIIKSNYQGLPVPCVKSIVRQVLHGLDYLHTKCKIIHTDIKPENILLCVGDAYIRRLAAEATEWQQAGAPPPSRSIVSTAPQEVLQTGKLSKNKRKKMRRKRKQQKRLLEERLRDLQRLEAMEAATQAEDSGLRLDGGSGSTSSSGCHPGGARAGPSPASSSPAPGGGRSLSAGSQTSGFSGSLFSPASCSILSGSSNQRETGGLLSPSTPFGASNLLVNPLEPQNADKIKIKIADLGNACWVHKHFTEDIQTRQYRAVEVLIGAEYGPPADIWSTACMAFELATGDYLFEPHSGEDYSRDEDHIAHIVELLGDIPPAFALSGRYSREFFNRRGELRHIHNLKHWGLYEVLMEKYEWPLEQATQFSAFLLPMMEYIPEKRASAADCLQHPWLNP

KinomeScan kinase panel [20] = biological target: T20, KinomeScan kinase panel (Homo sapiens, UniProt Q9Y463); settings: DYRK1B, 10 µM; read-out: score (%)
T20 construct: purchased DiscoveRx (KinomeScan)

SMILES	remaining binding at 10 µM (KinomeScan kinase panel [1]; RIOK3, 10 µM)	remaining binding at 10 µM (KinomeScan kinase panel [2]; ROCK2, 10 µM)	remaining binding at 10 µM (KinomeScan kinase panel [3])	remaining binding at 10 µM (KinomeScan kinase panel [4]; ABL1(Q252H))	remaining binding at 10 µM (KinomeScan kinase panel [5])	remaining binding at 10 µM (KinomeScan kinase panel [6])	remaining binding at 10 µM (KinomeScan kinase panel [7])	remaining binding at 10 µM (KinomeScan kinase panel [8])	remaining binding at 10 µM (KinomeScan kinase panel [9])	remaining binding at 10 µM (KinomeScan kinase panel [10])	remaining binding at 10 µM (KinomeScan kinase panel [11])	remaining binding at 10 µM (KinomeScan kinase panel [12]; FAK, 10 µM)	score (%) (KinomeScan kinase panel [13])	remaining binding at 10 µM (KinomeScan kinase panel [14])	remaining binding at 10 µM (KinomeScan kinase panel [15])	remaining binding at 10 µM (KinomeScan kinase panel [16]; RIOK2, 10 µM)	score (%) (KinomeScan kinase panel [17])	remaining binding at 10 µM (KinomeScan kinase panel [18]; PAK7, 10 µM)	remaining binding at 10 µM (KinomeScan kinase panel [19]; kinase SRPK3, 10 µM)	remaining binding at 10 µM (KinomeScan kinase panel [20])	other results
CCN1CCN(Cc2ccc(NC(=O)c3ccc(C)c(NC(=O)c4cncc(-c5cccs5)c4)c3)cc2C(F)(F)F)CC1 [ALW-II-41-27]	> 30%	18%	> 30%	0.25%	0%	0.1%	0.2%	11%	> 30%	23%	> 30%	> 30%	nb (Hits values higher than 30% were considered negative (no binding: nb))	> 30%	> 30%	> 30%	3.8%	> 30%	> 30%	12%	
CCN1CCN(Cc2ccc(NC(=O)c3ccc(C)c(/C=C/c4cnc5[nH]ccc5c4Cl)c3)cc2C(F)(F)F)CC1 [HG-6-63-01, (E)-3-(2-(4-chloro-1H-pyrrolo[2,3-b]pyridin-5-yl)vinyl)-N-(4-((4-ethylpiperazin-1-yl)methyl)-3-(trifluoromethyl)phenyl)-4-methylbenzamide]	0.35%	> 30%	> 30%	0.1%	0%	0.25%	0.55%	1.6%	> 30%	4.1%	> 30%		nb (Hits values higher than 30% were considered negative (no binding: nb))	> 30%	15%	33%	3%			22%	remaining binding at 10 µM (KinomeScan kinase panel [12]; PTK2, 10 µM): > 30%; remaining binding at 10 µM (KinomeScan kinase panel [18]; PAK7/PAK5, 10 µM): > 30%; remaining binding at 10 µM (KinomeScan kinase panel [19]; SRPK3, 10 µM): 22%
CCN1CCN(Cc2ccc(NC(=O)c3ccc(C)c(C#Cc4cccnc4)c3)cc2C(F)(F)F)CC1 [XMD15-44]			100%		0%	0.05%	0.15%	2.7%	58%	3%	> 30%	> 30%	nb (Hits values higher than 30% were considered negative (no binding: nb))	> 30%	79%		5%	83%	45%	> 30%	remaining binding at 10 µM (KinomeScan kinase panel [1]; kinase RIOK3, 10 µM): 70%; remaining binding at 10 µM (KinomeScan kinase panel [2]; kinase ROCK2, 10 µM): 19%; remaining binding at 10 µM (KinomeScan kinase panel [4]; ABL1(Q252H)-nonphosphorylated): 6.4%; remaining binding at 10 µM (KinomeScan kinase panel [4]; ABL1(Q252H)-phosphorylated): 0.7%; remaining binding at 10 µM (KinomeScan kinase panel [16]; kinase RIOK2, 10 µM): 0.5%
